Measured values: patent US20060069132A1, “Azolecarboxamide herbicides” (priority 2004, published 2006)

Assays:
yellow nutsedge = test: Test C pre-/postemergence herbicide test; type: in vivo, Cyperus esculentus; conditions: for Nutsedge, Yellow plant response rating: 500 g ai/ha
Outline: (§1)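 Greenhouse-grown plants were evaluated visually 12 to 14 days after treatment, with 100 meaning complete control and 0 no effect. Application was preemergence, or postemergence at 2 to 18 cm.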

[1] = system: common (oilseed) sunflower; test: Test C pre-/postemergence herbicide test; type: in vivo, Helianthus annuus; conditions: for Plant response rating (0 = no effect, 100 = complete control), Sunflower: 62 g ai/ha; for Plant response rating (0 = no effect, 100 = complete control), Sunflower / Plant response rating, Sunflower: preemergence; for Sunflower plant response rating: Preemergence, 500 g ai/ha, scale 0 to 100, 0 no effect, 100 complete control
Outline: as §1

soybean = test: Test C pre-/postemergence herbicide test; type: in vivo, Glycine max; conditions: for Soybean plant response rating: 500 g ai/ha
Outline: as §1

goosegrass = test: Test C pre-/postemergence herbicide test; type: in vivo, Eleusine indica; conditions: for Goosegrass plant response rating: 500 g ai/ha
Outline: as §1

velvetleaf [2] = test: Test A pre-/postemergence herbicide test; type: in vivo, Abutilon theophrasti; conditions: for Plant response rating, Velvetleaf: Postemergence; for Velvetleaf plant response rating: Preemergence
Outline: (§2)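 Plants are held in greenhouse about ten days after treatment, then compared with untreated controls and scored 0 (no effect) to 100 (complete control). Preemergence dosing is a directed soil spray on sown sandy loam; postemergence dosing is spray to runoff at 2–10 cm height.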

lambsquarters = test: Test C pre-/postemergence herbicide test; type: in vivo, Chenopodium album; conditions: for Lambsquarters plant response rating: 500 g ai/ha
Outline: as §1

barnyardgrass = test: Test C flooded paddy test; type: in vivo, Echinochloa crus-galli; conditions: for Plant response rating, Barnyardgrass: visual rating after 12 to 14 days
Outline: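 Injury scored visually against controls on a 0 (no effect) to 100 (complete control) scale, 12 to 14 days after treatment in greenhouse. Flooded paddy plants treated at 2-leaf stage; postemergence plants at 1- to 4-leaf stage, 2 to 18 cm tall.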

cocklebur = test: Test C pre-/postemergence herbicide test; type: in vivo, Xanthium strumarium; conditions: for Cocklebur plant response rating: 500 g ai/ha
Outline: as §1

velvetleaf [3] = test: Test C pre-/postemergence herbicide test; type: in vivo, Abutilon theophrasti; conditions: for Velvetleaf plant response rating: 500 g ai/ha
Outline: as §1

ducksalad = test: Test C flooded paddy test; type: in vivo, Heteranthera limosa; conditions: for Plant response rating, Ducksalad: visual rating after 12 to 14 days
morningglory = test: Test A pre-/postemergence herbicide test; type: in vivo, Ipomoea spp.; conditions: for Plant response rating, Morningglory: Postemergence; for Morningglory plant response rating: Preemergence
Outline: as §2

[4] = 250 g ai/ha, scale 0 to 100 (0 no effect, 100 complete control), visual, 12 to 14 days, preemergence
[5] = Postemergence, 250 g ai/ha, scale 0 to 100, 0 no effect, 100 complete control
[6] = Preemergence, scale 0 to 100, 0 no effect, 100 complete control
[7] = postemergence, 125 g ai/ha, scale 0 to 100
[8] = postemergence, 62 g ai/ha, scale 0 to 100
[9] = 250 g ai/ha, scale 0 to 100 (0 no effect, 100 complete control), visual, 12 to 14 days
[10] = 125 g ai/ha, scale 0-100, preemergence
[11] = Postemergence, 125 g ai/ha, scale 0 to 100, 0 no effect, 100 complete control
[12] = 500 g ai/ha, 0 to 100 scale, 0 no effect, 100 complete control
[13] = 2000 g ai/ha, 0 to 100 scale, 0 no effect, 100 complete control
[14] = 500 g ai/ha, visual rating, 0 to 100 scale (0 no effect, 100 complete control)
[15] = 62 g ai/ha, scale 0 to 100 (0 no effect, 100 complete control)
[16] = 125 g ai/ha, scale of 0 to 100, 0 is no effect, 100 is complete control
[17] = 250 g ai/ha, scale 0 to 100 (0 no effect, 100 complete control)
[18] = 500 g ai/ha, scale 0 to 100 (0 no effect, 100 complete control)
[19] = 31 g ai/ha, preemergence, scale 0 to 100
[20] = 125 g ai/ha, scale 0 (no effect) to 100 (complete control), visual, 12 to 14 days, preemergence
[21] = 125 g ai/ha, scale 0 (no effect) to 100 (complete control), visual, 12 to 14 days
[22] = 2000 g ai/ha, visual rating, 0 to 100 scale (0 no effect, 100 complete control)
[23] = 250 g ai/ha, scale of 0 to 100, 0 is no effect, 100 is complete control

C=Cn1nc(C(C)(C)C)cc1C(=O)Nc1cccc(C(=O)N(CC)CC)c1 [Compound 34]
75: Plant response rating, Ducksalad (ducksalad; [18])
70: Plant response rating, Soybean (soybean; [8]) | Cocklebur plant response rating (cocklebur; Postemergence, scale 0 to 100) | Velvetleaf plant response rating (velvetleaf [3]; Postemergence, scale 0 to 100) | Plant response rating, Velvetleaf (velvetleaf [3]; [5]) | Plant response rating, Velvetleaf (velvetleaf [3]; [7])
45: Plant response rating, Barnyardgrass (barnyardgrass; [17])
50: Plant response rating, Cocklebur (cocklebur; [5]) | Morningglory plant response rating (morningglory; [13])
35: Barnyardgrass plant response rating (barnyardgrass; [16]) | Morningglory plant response rating (morningglory; [14])
15: Ducksalad plant response rating (ducksalad; [15])
20: Nutsedge, Yellow plant response rating (yellow nutsedge; Postemergence, scale 0 to 100) | Plant response rating (0 = no effect, 100 = complete control), Goosegrass (goosegrass; 62 g ai/ha, preemergence) | Plant response rating, Velvetleaf (velvetleaf [2]; [12]) | Velvetleaf plant response rating (velvetleaf [2]; [14]) | Plant response rating, Cocklebur (cocklebur; [11]) | Plant response rating, Cocklebur (cocklebur; [8]) | Plant response rating, Velvetleaf (velvetleaf [3]; [8]) | Plant response rating, Morningglory (morningglory; [13])
100: Plant response rating, Goosegrass (goosegrass; [4]) | Goosegrass plant response rating (goosegrass; [6]) | Plant response rating, Lambsquarters (lambsquarters; [10]) | Plant response rating, Lambsquarters (lambsquarters; [4]) | Lambsquarters plant response rating (lambsquarters; Postemergence, scale 0 to 100) | Plant response rating, Lambsquarters (lambsquarters; [5]) | Lambsquarters plant response rating (lambsquarters; [6]) | Velvetleaf plant response rating (velvetleaf [3]; [6])
30: Plant response rating, Goosegrass (goosegrass; [8]) | Plant response rating, Velvetleaf (velvetleaf [2]; [13])
40: Goosegrass plant response rating (goosegrass; Postemergence, scale 0 to 100) | Plant response rating, Goosegrass (goosegrass; [11]) | Plant response rating, Goosegrass (goosegrass; [5]) | Plant response rating, Lambsquarters (lambsquarters; [8])
80: Soybean plant response rating (soybean; Postemergence, scale 0 to 100) | Plant response rating, Soybean (soybean; [5]) | Plant response rating, Soybean (soybean; [7]) | Plant response rating, Goosegrass (goosegrass; [10]) | Plant response rating, Lambsquarters (lambsquarters; [7])
65: Plant response rating, Barnyardgrass (barnyardgrass; [18])
0: Plant response rating (0 = no effect, 100 = complete control), Nutsedge, Yellow (yellow nutsedge; 62 g ai/ha, preemergence) | Plant response rating, Nutsedge, Yellow (yellow nutsedge; [4]) | Plant response rating, Nutsedge, Yellow (yellow nutsedge; [5]) | Nutsedge, Yellow plant response rating (yellow nutsedge; [6]) | Plant response rating, Nutsedge, Yellow (yellow nutsedge; [7]) | Plant response rating, Nutsedge, Yellow (yellow nutsedge; [8]) | Plant response rating (0 = no effect, 100 = complete control), Sunflower [1] | Plant response rating, Sunflower [1, 9] | Sunflower plant response rating [1] | Plant response rating (0 = no effect, 100 = complete control), Soybean (soybean; 62 g ai/ha, preemergence) | Plant response rating, Soybean (soybean; [4]) | Soybean plant response rating (soybean; [6]) | Barnyardgrass plant response rating (barnyardgrass; [15]) | Plant response rating (0 = no effect, 100 = complete control), Cocklebur (cocklebur; 62 g ai/ha, preemergence) | Plant response rating, Cocklebur (cocklebur; [10]) | Plant response rating, Cocklebur (cocklebur; [4]) | Cocklebur plant response rating (cocklebur; [6]) | Plant response rating (0 = no effect, 100 = complete control), Velvetleaf (velvetleaf [3]; 62 g ai/ha, preemergence)
90: Plant response rating (0 = no effect, 100 = complete control), Lambsquarters (lambsquarters; 62 g ai/ha, preemergence) | Plant response rating, Velvetleaf (velvetleaf [3]; [4])
25: Velvetleaf plant response rating (velvetleaf [2]; [13]) | Ducksalad plant response rating (ducksalad; [16]) | Plant response rating, Ducksalad (ducksalad; [17])
10: Plant response rating, Morningglory (morningglory; [12])

CCn1nc(C(C)(C)C)cc1C(=O)Nc1cccc(C(=O)NCC2CC2)c1 [Compound 62]
90: Ducksalad plant response rating (ducksalad; [23]) | Plant response rating, Ducksalad (ducksalad; [18])
95: Velvetleaf plant response rating (velvetleaf [2]; [22])
30: Plant response rating, Soybean (soybean; [4]) | Barnyardgrass plant response rating (barnyardgrass; [23])
40: Plant response rating, Nutsedge, Yellow (yellow nutsedge; [4])
0: Plant response rating, Nutsedge, Yellow (yellow nutsedge; [19]) | Plant response rating (0 = no effect, 100 = complete control), Nutsedge, Yellow (yellow nutsedge; 62 g ai/ha, preemergence) | Plant response rating, Sunflower ([1]; 31 g ai/ha, scale 0 to 100) | Plant response rating (0 = no effect, 100 = complete control), Sunflower [1] | Plant response rating, Sunflower [1, 21] | Plant response rating, Sunflower [1, 9] | Plant response rating, Soybean (soybean; [19]) | Plant response rating (0 = no effect, 100 = complete control), Soybean (soybean; 62 g ai/ha, preemergence) | Plant response rating, Soybean (soybean; [20]) | Plant response rating, Goosegrass (goosegrass; [19]) | Plant response rating, Cocklebur (cocklebur; [19]) | Plant response rating (0 = no effect, 100 = complete control), Cocklebur (cocklebur; 62 g ai/ha, preemergence) | Plant response rating, Cocklebur (cocklebur; [20]) | Plant response rating, Cocklebur (cocklebur; [4]) | Plant response rating, Velvetleaf (velvetleaf [3]; [19])
35: Ducksalad plant response rating (ducksalad; [16])
85: Plant response rating, Goosegrass (goosegrass; [4])
25: Ducksalad plant response rating (ducksalad; [15])
75: Morningglory plant response rating (morningglory; [13])
70: Plant response rating, Goosegrass (goosegrass; [20]) | Velvetleaf plant response rating (velvetleaf [2]; [14]) | Plant response rating, Velvetleaf (velvetleaf [3]; [4])
10: Plant response rating, Nutsedge, Yellow (yellow nutsedge; [20]) | Plant response rating (0 = no effect, 100 = complete control), Goosegrass (goosegrass; 62 g ai/ha, preemergence) | Barnyardgrass plant response rating (barnyardgrass; [16]) | Plant response rating, Morningglory (morningglory; [12])
5: Barnyardgrass plant response rating (barnyardgrass; [15])
20: Plant response rating, Velvetleaf (velvetleaf [2]; [13]) | Plant response rating, Morningglory (morningglory; [13]) | Morningglory plant response rating (morningglory; [14])
55: Plant response rating, Barnyardgrass (barnyardgrass; [18])
100: Plant response rating, Lambsquarters (lambsquarters; [19]) | Plant response rating (0 = no effect, 100 = complete control), Lambsquarters (lambsquarters; 62 g ai/ha, preemergence) | Plant response rating, Lambsquarters (lambsquarters; [20]) | Plant response rating, Lambsquarters (lambsquarters; [4])

CCN1CCc2c(NC(=O)c3cc(C(C)(C)C)nn3CC)cccc2C1=O [Compound 63]
20: Velvetleaf plant response rating (velvetleaf [2]; [14]) | Barnyardgrass plant response rating (barnyardgrass; [23])
95: Plant response rating, Lambsquarters (lambsquarters; [20])
55: Plant response rating, Velvetleaf (velvetleaf [2]; [13])
50: Plant response rating, Barnyardgrass (barnyardgrass; [18]) | Ducksalad plant response rating (ducksalad; [16])
0: Plant response rating (0 = no effect, 100 = complete control), Nutsedge, Yellow (yellow nutsedge; 62 g ai/ha, preemergence) | Plant response rating, Nutsedge, Yellow (yellow nutsedge; [20]) | Plant response rating, Nutsedge, Yellow (yellow nutsedge; [4]) | Plant response rating (0 = no effect, 100 = complete control), Sunflower [1] | Plant response rating, Sunflower [1, 21] | Plant response rating, Sunflower [1, 9] | Plant response rating (0 = no effect, 100 = complete control), Soybean (soybean; 62 g ai/ha, preemergence) | Plant response rating, Soybean (soybean; [20]) | Barnyardgrass plant response rating (barnyardgrass; [15]) | Barnyardgrass plant response rating (barnyardgrass; [16]) | Plant response rating (0 = no effect, 100 = complete control), Cocklebur (cocklebur; 62 g ai/ha, preemergence) | Plant response rating, Cocklebur (cocklebur; [20]) | Plant response rating, Cocklebur (cocklebur; [4]) | Cocklebur plant response rating (cocklebur; [6]) | Ducksalad plant response rating (ducksalad; [15])
90: Goosegrass plant response rating (goosegrass; [6])
45: Plant response rating, Goosegrass (goosegrass; [20])
40: Nutsedge, Yellow plant response rating (yellow nutsedge; [6])
60: Plant response rating, Goosegrass (goosegrass; [4])
100: Plant response rating, Lambsquarters (lambsquarters; [4]) | Lambsquarters plant response rating (lambsquarters; [6]) | Velvetleaf plant response rating (velvetleaf [3]; [6])
85: Plant response rating, Ducksalad (ducksalad; [18])
10: Plant response rating, Soybean (soybean; [4]) | Plant response rating (0 = no effect, 100 = complete control), Goosegrass (goosegrass; 62 g ai/ha, preemergence) | Plant response rating, Velvetleaf (velvetleaf [3]; [20]) | Morningglory plant response rating (morningglory; [14])
30: Sunflower plant response rating [1] | Plant response rating (0 = no effect, 100 = complete control), Lambsquarters (lambsquarters; 62 g ai/ha, preemergence) | Plant response rating, Velvetleaf (velvetleaf [3]; [4])
70: Soybean plant response rating (soybean; [6]) | Velvetleaf plant response rating (velvetleaf [2]; [22]) | Ducksalad plant response rating (ducksalad; [23]) | Morningglory plant response rating (morningglory; [13])
15: Plant response rating, Morningglory (morningglory; [12]) | Plant response rating, Morningglory (morningglory; [13])
